One block for each compound: values may come before it.
What was measured:
[1] = target: T1, rat kidney medullary V2 receptors (Rattus norvegicus, UniProt Q00788); assay: Binding Assay to Rat Kidney Medullary V2 Receptors; conditions: rat kidney medullary V2
T1 construct: Medullary tissues from rat kidneys are dissected out; from tissue; host or cells: rat kidney medulla membranes
How it was run: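 Competition binding: [3H]AVP at 0.8 nM, test compounds from 50% DMSO, and membranes from rat kidney medulla, left 120 min on the bench. Filtration then liquid scintillation counting measured bound ligand; 1.0 μM unlabeled ligand set non-specific binding.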

vasopressin V1 = assay: Vasopressin V1 Antagonist Activity in Conscious Rats (vasopressin vasopressor response); type: in vivo, rat (spontaneously hypertensive rats); set-up: Average Change: unit not given here
How it was run: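 Conscious rats had the ventral caudal tail artery cannulated into the lower abdominal aorta under local procaine anesthesia, plus a caudal vein cannula for intravenous dosing. Pulsatile blood pressure was recorded via a Statham P23Db transducer. Vasopressor responses to vasopressin injections were measured before and after compound dosing, with percent antagonism calculated relative to the pre-drug response taken as 100%.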

vasopressin V2 = assay: Vasopressin V2 Antagonist Activity in Conscious Hydrated Rats (diuretic effect); type: in vivo, normal Sprague-Dawley rats; conditions: AVP 0.4 μg/kg i.p.
Method: Conscious hydrated rats are treated with compounds under study from 0.1 to 100 mg/kg orally or vehicle. Two to four rats are used for each compound. One hour later, arginine vasopressin (AVP, antidiuretic hormore, ADH) dissolved in peanut oil is administered at 0.4 μg/kg intraperitoneally. Two rats in each test would not receive arginine vasopressin but only the vehicle (peanut oil) to serve as water-loading control. Twenty minutes later each rat is given 30 mL/kg of deionized water orally by gavage and is placed individually in a metabolic cage equipped with a funnel and a graduated glass cylinder to collect urine for four hours. Urine volume is measured and osmolality analyzed by use of a Fiske One-Ten osmometer (Fiske Assoc., Norwood, Mass., USA). Urinary sodium, potassium, and chloride are analyzed by use of ion-specific electrodes in a Beckman E3 (Electrolyte 3) Analyzer. In the following results, […] and decreased osmolality relative to AVP-control indicates activity.

[2] = target: vasopressin V1 receptor (rat liver plasma membranes) (Rattus norvegicus, UniProt P30560); assay: Binding Assay to Rat Hepatic V1 Receptors; conditions: rat hepatic V1
Sequence of vasopressin V1 receptor (rat liver plasma membranes) (P30560 whole entry): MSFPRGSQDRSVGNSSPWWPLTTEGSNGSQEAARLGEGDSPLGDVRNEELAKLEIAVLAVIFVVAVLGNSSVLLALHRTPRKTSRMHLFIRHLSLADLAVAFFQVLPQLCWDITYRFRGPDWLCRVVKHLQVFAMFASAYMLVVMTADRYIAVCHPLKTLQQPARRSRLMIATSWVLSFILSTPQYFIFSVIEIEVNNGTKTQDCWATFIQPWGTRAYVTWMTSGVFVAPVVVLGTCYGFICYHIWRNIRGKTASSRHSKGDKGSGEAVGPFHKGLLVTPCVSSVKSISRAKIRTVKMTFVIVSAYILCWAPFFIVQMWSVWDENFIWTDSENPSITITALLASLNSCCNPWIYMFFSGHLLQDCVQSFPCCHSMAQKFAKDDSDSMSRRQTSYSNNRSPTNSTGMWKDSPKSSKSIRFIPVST

[3] = 10 mg/kg i.v., VAS 0.01 i.u./kg, 30 min
[4] = 10 mg/kg i.v., VAS 0.01 i.u./kg, 60 min
[5] = 10 mg/kg i.v., VAS 0.01 i.u./kg, 90 min
[6] = 10 mg/kg i.v., VAS 0.01 i.u./kg, 120 min
[7] = 10 mg/kg i.v., VAS 0.01 i.u./kg, 180 min
[8] = 10 mg/kg i.v., VAS 0.01 i.u./kg, 240 min
[9] = 10 mg/kg i.v., VAS 0.01 i.u./kg, 300 min
[10] = 10 mg/kg i.v., VAS 0.02 i.u./kg, 30 min
[11] = 10 mg/kg i.v., VAS 0.02 i.u./kg, 60 min
[12] = 10 mg/kg i.v., VAS 0.02 i.u./kg, 90 min
[13] = 10 mg/kg i.v., VAS 0.02 i.u./kg, 120 min
[14] = 10 mg/kg i.v., VAS 0.02 i.u./kg, 180 min
[15] = 10 mg/kg i.v., VAS 0.02 i.u./kg, 240 min
[16] = 10 mg/kg i.v., VAS 0.02 i.u./kg, 300 min
[17] = 30 mg/kg p.o., VAS 0.01 i.u./kg, 30 min
[18] = 30 mg/kg p.o., VAS 0.01 i.u./kg, 60 min
[19] = 30 mg/kg p.o., VAS 0.01 i.u./kg, 90 min
[20] = 30 mg/kg p.o., VAS 0.01 i.u./kg, 120 min
[21] = 30 mg/kg p.o., VAS 0.01 i.u./kg, 180 min
[22] = 30 mg/kg p.o., VAS 0.01 i.u./kg, 240 min
[23] = 30 mg/kg p.o., VAS 0.02 i.u./kg, 30 min
[24] = 30 mg/kg p.o., VAS 0.02 i.u./kg, 60 min
[25] = 30 mg/kg p.o., VAS 0.02 i.u./kg, 90 min
[26] = 30 mg/kg p.o., VAS 0.02 i.u./kg, 120 min
[27] = 30 mg/kg p.o., VAS 0.02 i.u./kg, 180 min
[28] = 30 mg/kg p.o., VAS 0.02 i.u./kg, 240 min
[29] = 20 mg/kg i.v., VAS 0.01 i.u./kg, 60 min
[30] = 20 mg/kg i.v., VAS 0.01 i.u./kg, 90 min
[31] = 20 mg/kg i.v., VAS 0.01 i.u./kg, 120 min
[32] = 20 mg/kg i.v., VAS 0.01 i.u./kg, 180 min
[33] = 20 mg/kg i.v., VAS 0.01 i.u./kg, 240 min
[34] = 20 mg/kg i.v., VAS 0.01 i.u./kg, 300 min
[35] = 20 mg/kg i.v., VAS 0.02 i.u./kg, 60 min
[36] = 20 mg/kg i.v., VAS 0.02 i.u./kg, 90 min
[37] = 20 mg/kg i.v., VAS 0.02 i.u./kg, 120 min
[38] = 20 mg/kg i.v., VAS 0.02 i.u./kg, 180 min
[39] = 20 mg/kg i.v., VAS 0.02 i.u./kg, 240 min
[40] = 20 mg/kg i.v., VAS 0.02 i.u./kg, 300 min

T1 sequence (Q00788 whole entry): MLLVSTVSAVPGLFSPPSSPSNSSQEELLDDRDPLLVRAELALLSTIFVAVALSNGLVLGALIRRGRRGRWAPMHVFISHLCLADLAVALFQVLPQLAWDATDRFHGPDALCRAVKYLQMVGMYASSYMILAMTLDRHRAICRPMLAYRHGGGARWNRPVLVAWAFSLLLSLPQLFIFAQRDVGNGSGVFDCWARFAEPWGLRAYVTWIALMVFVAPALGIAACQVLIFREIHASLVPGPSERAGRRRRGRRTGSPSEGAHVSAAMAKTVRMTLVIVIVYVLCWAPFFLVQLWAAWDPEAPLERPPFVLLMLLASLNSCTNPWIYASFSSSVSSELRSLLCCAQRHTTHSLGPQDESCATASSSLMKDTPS

- IC50 [1]: 0.025 µM
- IC50 [2]: 0.098 µM
Structure (SMILES): Cc1ccccc1C(=O)Nc1ccc(C(=O)N2CCc3ccccc3-c3ccccc32)cc1 [Example 92, N-[4-[(6,7-Dihydro-5H-dibenz[b,d]azepin-5-yl)-carbonyl]phenyl]-2-methylbenzamide]
- Average Change (vasopressin V1; [3]): 10.5
- Inhibition (vasopressin V1; [3]): 65%
- Average Change (vasopressin V1; [4]): 18
- Inhibition (vasopressin V1; [4]): 40%
- Average Change (vasopressin V1; [5]): 17.5
- Inhibition (vasopressin V1; [5]): 42%
- Average Change (vasopressin V1; [6]): 19
- Inhibition (vasopressin V1; [6]): 37%
- Average Change (vasopressin V1; [7]): 18
- Inhibition (vasopressin V1; [7]): 40%
- Average Change (vasopressin V1; [8]): 19
- Inhibition (vasopressin V1; [8]): 37%
- Average Change (vasopressin V1; [9]): 17.5
- Inhibition (vasopressin V1; [9]): 42%
- Average Change (vasopressin V1; [10]): 18.5
- Inhibition (vasopressin V1; [10]): 60%
- Average Change (vasopressin V1; [11]): 22
- Inhibition (vasopressin V1; [11]): 53%
- Average Change (vasopressin V1; [12]): 27
- Inhibition (vasopressin V1; [12]): 42%
- Average Change (vasopressin V1; [13]): 20.5
- Inhibition (vasopressin V1; [13]): 56%
- Average Change (vasopressin V1; [14]): 29.5
- Inhibition (vasopressin V1; [14]): 37%
- Average Change (vasopressin V1; [15]): 18
- Inhibition (vasopressin V1; [15]): 61%
- Average Change (vasopressin V1; [16]): 24
- Inhibition (vasopressin V1; [16]): 48%
- Osmolality (vasopressin V2; 10 mg/kg orally): 679 mOsm/kg
- Urine Volume (vasopressin V2; 10 mg/kg orally): 13.5 ml/4 hrs.

- IC50 [1]: 0.065 µM
- IC50 [2]: 0.053 µM
Structure (SMILES): O=C(Cc1ccccc1Cl)Nc1ccc(C(=O)N2Cc3ccccc3Cc3ccccc32)cc1 [Example 16, 2-Chloro-N-[4-[(6,11-dihydro-5H-dibenz[b,e]azepin-5-yl)carbonyl]phenyl]benzeneacetamide]
- Average Change (vasopressin V1; [17]): 25
- Inhibition (vasopressin V1; [17]): 15%
- Average Change (vasopressin V1; [18]): 30.5
- Inhibition (vasopressin V1; [18]): -3%
- Average Change (vasopressin V1; [19]): 28.5
- Inhibition (vasopressin V1; [19]): 3%
- Average Change (vasopressin V1; [20]): 23.5
- Inhibition (vasopressin V1; [20]): 20%
- Average Change (vasopressin V1; [21]): 30.5
- Inhibition (vasopressin V1; [21]): -3%
- Average Change (vasopressin V1; [22]): 30
- Inhibition (vasopressin V1; [22]): -2%
- Average Change (vasopressin V1; [23]): 27.5
- Inhibition (vasopressin V1; [23]): 17%
- Average Change (vasopressin V1; [24]): 29
- Inhibition (vasopressin V1; [24]): 12%
- Average Change (vasopressin V1; [25]): 40.5
- Inhibition (vasopressin V1; [25]): -23%
- Average Change (vasopressin V1; [26]): 29.5
- Inhibition (vasopressin V1; [26]): 11%
- Average Change (vasopressin V1; [27]): 26
- Inhibition (vasopressin V1; [27]): 21%
- Average Change (vasopressin V1; [28]): 30
- Inhibition (vasopressin V1; [28]): 9%
- Osmolality (vasopressin V2; 30 mg/kg orally): 1257 mOsm/kg
- Urine Volume (vasopressin V2; 30 mg/kg orally): 7.2 ml/4 hrs.

- IC50 [1]: 0.064 µM
- IC50 [2]: 0.17 µM
Structure (SMILES): O=C(Nc1ccc(C(=O)N2Cc3ccccc3Cc3ccccc32)cc1)c1ccc(Cl)cc1Cl [Example 10, N-[4-[(6,11-Dihydro-5H-dibenz[b,e]azepin-5-yl)carbonyl]phenyl]2,4-dichlorobenzamide]
- Average Change (vasopressin V1; [3]): 37.5
- Inhibition (vasopressin V1; [3]): -25%
- Average Change (vasopressin V1; [10]): 64.5
- Inhibition (vasopressin V1; [10]): -26%
- Average Change (vasopressin V1; [29]): 14.5
- Inhibition (vasopressin V1; [29]): 52%
- Average Change (vasopressin V1; [30]): 16
- Inhibition (vasopressin V1; [30]): 47%
- Average Change (vasopressin V1; [31]): 13.5
- Inhibition (vasopressin V1; [31]): 55%
- Average Change (vasopressin V1; [32]): 25.5
- Inhibition (vasopressin V1; [32]): 15%
- Average Change (vasopressin V1; [33]): 22.5
- Inhibition (vasopressin V1; [33]): 25%
- Average Change (vasopressin V1; [34]): 24.5
- Inhibition (vasopressin V1; [34]): 18%
- Average Change (vasopressin V1; [35]): 22.5
- Inhibition (vasopressin V1; [35]): 56%
- Average Change (vasopressin V1; [36]): 23
- Inhibition (vasopressin V1; [36]): 55%
- Average Change (vasopressin V1; [37]): 22
- Inhibition (vasopressin V1; [37]): 57%
- Average Change (vasopressin V1; [38]): 29.5
- Inhibition (vasopressin V1; [38]): 42%
- Average Change (vasopressin V1; [39]): 34.5
- Inhibition (vasopressin V1; [39]): 32%
- Average Change (vasopressin V1; [40]): 34
- Inhibition (vasopressin V1; [40]): 33%
- Osmolality (vasopressin V2; 10 mg/kg orally): 1023 mOsm/kg
- Urine Volume (vasopressin V2; 10 mg/kg orally): 7.1 ml/4 hrs.

From patent US5834461A, “Tricyclic benzazepine vasopressin antagonists” (American Cyanamid Company, priority 1997, dated 1998)
